One block for each molecule: values may come before it.
Target: T1, Bcl-2 protein (Recombinant Human Bcl-2 Protein) (Homo sapiens, UniProt P10415)
T1 construct: purchased Novus NBP2-34889
Experiment: Binding evaluation of mixture library compounds to Bcl-2 using AS-MS (affinity selection mass spectrometry)
Conditions: for ASMS ratio (%) n = 1 / ASMS ratio (%) n = 2: ASMS Ratio(%)=(A−C)/B×100; for ASMS ratio (%) n = 1: replicate n = 1; for ASMS ratio (%) n = 2: replicate n = 2
Outline: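 Bcl-2 binding is scored from LC/MS signal retained with protein through gel-filtration spin columns, normalised to unfiltered and protein-free controls. Incubation: 20 μM protein, […] per compound, 1 h, 23° C.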

[1] = AS-MS on the mixture of 1200 library compounds
[2] = AS-MS, mixture of 1200 compounds, Bcl-2

T1 sequence (P10415 whole entry): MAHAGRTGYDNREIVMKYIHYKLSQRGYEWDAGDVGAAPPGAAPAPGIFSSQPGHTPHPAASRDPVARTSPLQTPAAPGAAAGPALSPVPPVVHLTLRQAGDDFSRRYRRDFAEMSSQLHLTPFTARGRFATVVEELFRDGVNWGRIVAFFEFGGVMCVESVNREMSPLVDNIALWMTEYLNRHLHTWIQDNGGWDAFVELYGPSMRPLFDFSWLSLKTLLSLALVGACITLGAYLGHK

ASMS ratio (%) n = 1 [1]: 0.0%
ASMS ratio (%) n = 2 [1]: −0.8%
Structure (SMILES): CCOc1cncc(-c2ccc(C(=O)N3CCN(c4ccc(C(=O)N(CC)CC)nn4)CC3)c3ccccc23)c1 [B4J014-01, 6-[4-[4-(5-Ethoxypyridin-3-yl)naphthalene-1-carbonyl]piperazin-1-yl]-N,N-diethylpyridazine-3-carboxamide]

ASMS ratio (%) n = 1 (AS-MS, mixture library, Bcl-2): 0.0%
ASMS ratio (%) n = 2 (AS-MS, mixture library, Bcl-2): 0.0%
Structure (SMILES): CCOc1cccc(-c2ccc(C(=O)N3CCN(c4ccc(C(=O)NS(C)(=O)=O)nn4)CC3)cc2C)c1 [B2I003-01, 6-[4-[4-(3-Ethoxyphenyl)-3-methylbenzoyl]piperazin-1-yl]-N-methylsulfonylpyridazine-3-carboxamide]

ASMS ratio (%) (n = 1): 4.2%
ASMS ratio (%) (n = 2): −7.4%
Structure (SMILES): CCOc1cncc(-c2cc(CN3CCN(c4ccc(C(=O)NS(=O)(=O)c5ccc(NCCSc6ccccc6)c(C(F)(F)F)c5)cc4)CC3)cc(OC(F)(F)F)c2)c1 [B2R064-01, 4-[4-[[3-(5-Ethoxypyridin-3-yl)-5-(trifluoromethoxy)phenyl]methyl]piperazin-1-yl]-N-[4-(2-phenylsulfanylethylamino)-3-(trifluoromethyl)phenyl]sulfonylbenzamide]

ASMS ratio (%) (n = 1): −0.3%
ASMS ratio (%) (n = 2): −3.8%
Structure (SMILES): CCOc1cccc(-c2cc(CN3CCN(c4ccc(C(=O)NS(=O)(=O)CCC(F)(F)F)cc4)CC3)cc(OC(F)(F)F)c2)c1 [B2N063-01, 4-[4-[[3-(3-Ethoxyphenyl)-5-(trifluoromethoxy)phenyl]methyl]piperazin-1-yl]-N-(3,3,3-trifluoropropylsulfonyl)benzamide]

ASMS ratio (%) n = 1 [1]: 0.0%
ASMS ratio (%) n = 2 [1]: 0.0%
Structure (SMILES): CCOc1cccc(-c2csc(C(=O)N3CCN(c4ccc(C(=O)N(CC)CC)nn4)CC3)c2)c1 [B4J001-01, 6-[4-[4-(3-Ethoxyphenyl)thiophene-2-carbonyl]piperazin-1-yl]-N,N-diethylpyridazine-3-carboxamide]

ASMS ratio (%) (n = 1): 0.0%
ASMS ratio (%) (n = 2): 0.0%
Structure (SMILES): CCOc1cncc(-c2cc(CN3CCN(c4ccc(C(=O)NS(C)(=O)=O)cc4)CC3)cc(C(F)(F)F)c2)c1 [B2I062-01, 4-[4-[[3-(5-Ethoxypyridin-3-yl)-5-(trifluoromethyl)phenyl]methyl]piperazin-1-yl]-N-methylsulfonylbenzamide]

ASMS ratio (%) n = 1 [1]: 7.7%
ASMS ratio (%) n = 2 [1]: 2.4%
Structure (SMILES): CCOc1cncc(C#Cc2ccccc2CN2CCN(c3ccc(C(=O)N(C)CC45CC6CC(CC(C6)C4)C5)nn3)CC2)c1 [B3A096-01, N-(1-Adamantylmethyl)-6-[4-[[2-[2-(5-ethoxypyridin-3-yl)ethynyl]phenyl]methyl]piperazin-1-yl]-N-methylpyridazine-3-carboxamide]

ASMS ratio (%) (n = 1): 0.0%
ASMS ratio (%) (n = 2): 0.0%
Structure (SMILES): CCOc1cccc(-c2cc(CN3CCN(c4ccc(C(=O)NS(=O)(=O)CCC(F)(F)F)nn4)CC3)cc(C(F)(F)F)c2)c1 [B2N087-01]

ASMS ratio (%) n = 1 (AS-MS, mixture library, Bcl-2): 6.6%
ASMS ratio (%) n = 2 (AS-MS, mixture library, Bcl-2): −4.1%
Structure (SMILES): CCOc1cccc(C#Cc2cncc(C(=O)N3CCN(c4ccc(C(=O)NS(=O)(=O)c5ccc(NCCSc6ccccc6)c([N+](=O)[O-])c5)cc4)CC3)c2)c1 [B2Q031-01, 4-[4-[5-[2-(3-Ethoxyphenyl)ethynyl]pyridine-3-carbonyl]piperazin-1-yl]-N-[3-nitro-4-(2-phenylsulfanylethylamino)phenyl]sulfonylbenzamide]

ASMS ratio (%) n = 1 [2]: 3.3%
ASMS ratio (%) n = 2 [2]: 0.2%
Structure (SMILES): CCOc1cncc(-c2cc(CN3CCN(c4ccc(C(=O)NCC(F)(F)F)cc4)CC3)cc(OCC)c2)c1 [B1K056-01, 4-[4-[[3-Ethoxy-5-(5-ethoxypyridin-3-yl)phenyl]methyl]piperazin-1-yl]-N-(2,2,2-trifluoroethyl)benzamide]

ASMS ratio (%) n = 1 (AS-MS, mixture library, Bcl-2): 27.0%
ASMS ratio (%) n = 2 (AS-MS, mixture library, Bcl-2): 3.7%
Structure (SMILES): CCOc1cncc(-c2cnn(-c3cc(C(=O)N4CCN(c5ccc(C(=O)NS(=O)(=O)CC67CC8CC(CC(C8)C6)C7)nn5)CC4)cc(C(F)(F)F)c3)c2)c1 [B2A022-01, N-(1-Adamantylmethylsulfonyl)-6-[4-[3-[4-(5-ethoxypyridin-3-yl)pyrazol-1-yl]-5-(trifluoromethyl)benzoyl]piperazin-1-yl]pyridazine-3-carboxamide]

ASMS ratio (%) n = 1 [1]: 4.5%
ASMS ratio (%) n = 2 [1]: 2.2%
Structure (SMILES): CCOc1cccc(-c2ccc(CN3CCN(c4ccc(C(=O)Nc5ccc(OC)cc5)nn4)CC3)c3ccccc23)c1 [B1O091-01]

ASMS ratio (%) (n = 1): 0.0%
ASMS ratio (%) (n = 2): 0.0%
Structure (SMILES): CCOc1cncc(-c2cnn(-c3cc(C(=O)N4CCN(c5ccc(C(=O)NS(C)(=O)=O)cc5)CC4)cc(C(F)(F)F)c3)c2)c1 [B2I044-01, 4-[4-[3-[4-(5-Ethoxypyridin-3-yl)pyrazol-1-yl]-5-(trifluoromethyl)benzoyl]piperazin-1-yl]-N-methylsulfonylbenzamide]

ASMS ratio (%) n = 1 [2]: 3.2%
ASMS ratio (%) n = 2 [2]: 2.5%
Structure (SMILES): CCOc1cccc(-c2ccc(CN3CCN(c4ccc(C(=O)NCC56CC7CC(CC(C7)C5)C6)cc4)CC3)cc2C)c1 [B1A047-01, N-(1-Adamantylmethyl)-4-[4-[[4-(3-ethoxyphenyl)-3-methylphenyl]methyl]piperazin-1-yl]benzamide]

ASMS ratio (%) n = 1 [2]: 1.0%
ASMS ratio (%) n = 2 [2]: −2.6%
Structure (SMILES): CCOc1cccc(-c2cc(CN3CCN(c4ccc(C(=O)NCC(F)(F)F)cc4)CC3)cc(OC(C)C)c2)c1 [B1K057-01, 4-[4-[[3-(3-Ethoxyphenyl)-5-propan-2-yloxyphenyl]methyl]piperazin-1-yl]-N-(2,2,2-trifluoroethyl)benzamide]

ASMS ratio (%) n = 1 [1]: −2.7%
ASMS ratio (%) n = 2 [1]: −1.9%
Structure (SMILES): CCOc1cncc(-c2cc(OC)c(CN3CCN(c4ccc(C(=O)N(C)CC56CC7CC(CC(C7)C5)C6)nn4)CC3)c(OC)c2)c1 [B3A086-01, N-(1-Adamantylmethyl)-6-[4-[[4-(5-ethoxypyridin-3-yl)-2,6-dimethoxyphenyl]methyl]piperazin-1-yl]-N-methylpyridazine-3-carboxamide]

ASMS ratio (%) (n = 1): 0.0%
ASMS ratio (%) (n = 2): 0.0%
Structure (SMILES): CCOc1cccc(-c2ccc(C(=O)N3CCN(c4ccc(C(=O)NS(=O)(=O)C(C)(C)C)cc4)CC3)cc2F)c1 [B2L027-01, N-tert-Butylsulfonyl-4-[4-[4-(3-ethoxyphenyl)-3-fluorobenzoyl]piperazin-1-yl]benzamide]

ASMS ratio (%) n = 1 [1]: 0.6%
ASMS ratio (%) n = 2 [1]: 3.0%
Structure (SMILES): CCOc1cncc(-c2ccc(C(C)N3CCN(c4ccc(C(=O)N(C)CC56CC7CC(CC(C7)C5)C6)cc4)CC3)cc2)c1 (stereo not drawn) [B3A098-01, N-(1-Adamantylmethyl)-4-[4-[1-[4-(5-ethoxypyridin-3-yl)phenyl]ethyl]piperazin-1-yl]-N-methylbenzamide]

ASMS ratio (%) n = 1 [2]: 0.8%
ASMS ratio (%) n = 2 [2]: −0.2%
Structure (SMILES): CCOc1cncc(-c2ccc(CN3CCN(c4ccc(C(=O)NCC(F)(F)F)nn4)CC3)cc2F)c1 [B1K078-01, 6-[4-[[4-(5-Ethoxypyridin-3-yl)-3-fluorophenyl]methyl]piperazin-1-yl]-N-(2,2,2-trifluoroethyl)pyridazine-3-carboxamide]

ASMS ratio (%) n = 1 (AS-MS, mixture library, Bcl-2): 18.8%
ASMS ratio (%) n = 2 (AS-MS, mixture library, Bcl-2): 15.4%
Structure (SMILES): CCOc1cncc(-c2ccc(CN3CCN(c4ccc(C(=O)NS(=O)(=O)c5ccc(NCCSc6ccccc6)c([N+](=O)[O-])c5)nn4)CC3)cc2C)c1 [B2Q074-01]

ASMS ratio (%) (n = 1): 14.5%
ASMS ratio (%) (n = 2): 15.8%
Structure (SMILES): CCOc1cncc(-c2cnn(-c3cc(C(=O)N4CCN(c5ccc(C(=O)NS(=O)(=O)c6ccc(NCCSc7ccccc7)c(C(F)(F)F)c6)nn5)CC4)cc(C(F)(F)F)c3)c2)c1 [B2R022-01, 6-[4-[3-[4-(5-Ethoxypyridin-3-yl)pyrazol-1-yl]-5-(trifluoromethyl)benzoyl]piperazin-1-yl]-N-[4-(2-phenylsulfanylethylamino)-3-(trifluoromethyl)phenyl]sulfonylpyridazine-3-carboxamide]

Structure (SMILES): CCOc1cncc(C#Cc2ccccc2CN2CCN(c3ccc(C(=O)Nc4ccc(OC)cc4)cc3)CC2)c1 [B1O070-01]
ASMS ratio (%) n = 1 [1]: 8.8%
ASMS ratio (%) n = 2 [1]: 2.3%

ASMS ratio (%) n = 1 [1]: 0.0%
ASMS ratio (%) n = 2 [1]: 0.0%
Structure (SMILES): CCOc1cccc(-c2cc(C(=O)N3CCN(c4ccc(C(=O)N(CC)CC)nn4)CC3)cc(C(C)(C)C)c2)c1 [B4J015-01, 6-[4-[3-tert-Butyl-5-(3-ethoxyphenyl)benzoyl]piperazin-1-yl]-N,N-diethylpyridazine-3-carboxamide]

ASMS ratio (%) n = 1 (AS-MS, mixture library, Bcl-2): 4.6%
ASMS ratio (%) n = 2 (AS-MS, mixture library, Bcl-2): −4.6%
Structure (SMILES): CCOc1cccc(C#Cc2ccccc2CN2CCN(c3ccc(C(=O)NS(=O)(=O)CC45CC6CC(CC(C6)C4)C5)cc3)CC2)c1 [B2A069-01, N-(1-Adamantylmethylsulfonyl)-4-[4-[[2-[2-(3-ethoxyphenyl)ethynyl]phenyl]methyl]piperazin-1-yl]benzamide]

Structure (SMILES): CCOc1cncc(-c2cc(CN3CCN(c4ccc(C(=O)NS(=O)(=O)C(C)(C)C)cc4)CC3)cc(OCC)c2)c1 [B2L056-01]
ASMS ratio (%) (n = 1): 0.0%
ASMS ratio (%) (n = 2): 0.0%

ASMS ratio (%) n = 1 [2]: 5.2%
ASMS ratio (%) n = 2 [2]: −1.6%
Structure (SMILES): CCOc1cncc(-c2cc(CN3CCN(c4ccc(C(=O)NCC56CC7CC(CC(C7)C5)C6)cc4)CC3)cc(OC(F)(F)F)c2)c1 [B1A064-01, N-(1-Adamantylmethyl)-4-[4-[[3-(5-ethoxypyridin-3-yl)-5-(trifluoromethoxy)phenyl]methyl]piperazin-1-yl]benzamide]

ASMS ratio (%) n = 1 (AS-MS, mixture library, Bcl-2): 0.0%
ASMS ratio (%) n = 2 (AS-MS, mixture library, Bcl-2): 0.0%
Structure (SMILES): CCOc1cncc(-c2csc(C(=O)N3CCN(c4ccc(C(=O)NS(=O)(=O)CC56CC7CC(CC(C7)C5)C6)nn4)CC3)c2)c1 [B2A002-01, N-(1-Adamantylmethylsulfonyl)-6-[4-[4-(5-ethoxypyridin-3-yl)thiophene-2-carbonyl]piperazin-1-yl]pyridazine-3-carboxamide]

Reference: patent publication US20240132431A1, “METHOD FOR ALKYLATING ACIDIC FUNCTIONAL GROUP” (Chugai Seiyaku Kabushiki Kaisha, priority 2021, published 2024)
